This note sets out measurements from ChEMBL document CHEMBL3244371, “An approach to peripheral vasodilator-beta-adrenergic blocking agents” (J Med Chem, 1977).

SMILES strings stand for the structures.

One may read the ED50 as the dose at which the effect has come halfway, by size or by number of responders.

For data set [1], the system named is Canis familiaris. Put plainly: Blockade of isoprolerenol-induced hypotension in iv dosed anesthetized trachea-cannulated mongrel dog assessed as mean arterial pressure. The class given is functional. The following applies: Canis lupus familiaris, Artery.
Data set [2] has as its system Rattus norvegicus. In words: Antihypertensive activity in spontaneously hypertensive rat assessed as duration of effect at 0.312 mg/kg, po. The class given is functional.
The subject of data set [3] is Canis familiaris. Put plainly: Peripheral vasodilating activity in anesthetized trachea-cannulated mongrel dog assessed as increase in iliac blood flow at 60 ug administered intraarterially in presence of isoproterenol. Format: functional, Canis lupus familiaris, Artery.
In data set [4] the test system is Rattus norvegicus. In words: Antihypertensive activity in spontaneously hypertensive rat assessed as duration of effect at 1.25 mg/kg, po. The class given is functional.
The test system of data set [5] is Rattus norvegicus. Put plainly: Antihypertensive activity in spontaneously hypertensive rat assessed as maximum fall in mean arterial pressure at 5 mg/kg, po. The class given is functional, Artery.
For data set [6], the system named is Rattus norvegicus. Put plainly: Antihypertensive activity in spontaneously hypertensive rat assessed as maximum fall in mean arterial pressure at 0.312 mg/kg, po. The class given is functional, Artery.
In data set [7] the test system is Rattus norvegicus. In words: Antihypertensive activity in spontaneously hypertensive rat assessed as duration of effect at 5 mg/kg, po. The class given is functional.
Data set [8] concerns Rattus norvegicus. In words: Antihypertensive activity in spontaneously hypertensive rat assessed as maximum fall in mean arterial pressure at 1.25 mg/kg, po. Format: functional, Artery.
The test system of data set [9] is Canis familiaris. In words: Blockade of isoprolerenol-induced tachycardia in iv dosed anesthetized trachea-cannulated mongrel dog assessed as heart rate. Format: functional. The following applies: Canis lupus familiaris.
In data set [10] the test system is Canis familiaris. Put plainly: Peripheral vasodilating activity in anesthetized trachea-cannulated mongrel dog assessed as increase in iliac blood flow at 800 ug administered intraarterially co-treated with 800 ug/kg timolol in presence of isoproterenol. The class given is functional, Canis lupus familiaris, Artery.
Data set [11] concerns Rattus norvegicus. In words: Antihypertensive activity in spontaneously hypertensive rat assessed as maximum fall in mean arterial pressure at 2 mg/kg, po. The class given is functional, Artery.
Data set [12] relates to Canis familiaris. Put plainly: Toxicity in renal hypertensive dog assessed as elevation in heart rate at 4 to 16 mg/kg. Format: organism-based, Canis lupus familiaris. The arrangement: dose 4-16 mg/kg. The following applies: in vivo.
The subject of data set [13] is Canis familiaris. Put plainly: Peripheral vasodilating activity in anesthetized trachea-cannulated mongrel dog assessed as increase in iliac blood flow at 800 ug administered intraarterially co-treated with 320 ug/kg timolol in presence of isoproterenol. The class given is functional, Canis lupus familiaris, Artery.
The test system of data set [14] is Rattus norvegicus. In words: Antihypertensive activity in spontaneously hypertensive rat assessed as duration of effect at 8 mg/kg, po. Format: functional.
Data set [15] concerns Rattus norvegicus. In words: Antihypertensive activity in spontaneously hypertensive rat assessed as duration of effect at 2 mg/kg, po. The class given is functional.
Data set [16] relates to Rattus norvegicus. In words: Antihypertensive activity in spontaneously hypertensive rat assessed as maximum fall in mean arterial pressure at 1 mg/kg, po. The class given is functional, Artery.
For data set [17], the system named is Rattus norvegicus. Put plainly: Antihypertensive activity in spontaneously hypertensive rat assessed as maximum fall in mean arterial pressure at 8 mg/kg, po. The class given is functional, Artery.
The test system of data set [18] is Rattus norvegicus. In words: Antihypertensive activity in spontaneously hypertensive rat assessed as duration of effect at 1 mg/kg, po. The class given is functional.
The test system of data set [19] is Canis familiaris. In words: Peripheral vasodilating activity in anesthetized trachea-cannulated mongrel dog assessed as increase in iliac blood flow at 800 ug administered intraarterially in presence of isoproterenol. The class given is functional, Canis lupus familiaris, Artery.
Data set [20] deals with Rattus norvegicus. Put plainly: Antihypertensive activity in spontaneously hypertensive rat assessed as maximum fall in mean arterial pressure at 20 mg/kg, ip. Format: functional, Artery. The following applies: route intraperitoneal.
Data set [21] relates to Canis familiaris. In words: Peripheral vasodilating activity in anesthetized trachea-cannulated mongrel dog assessed as increase in iliac blood flow at 1600 ug administered intraarterially co-treated with 2000 ug/kg timolol in presence of isoproterenol. Format: functional, Canis lupus familiaris, Artery.
Data set [22] relates to Rattus norvegicus. Put plainly: Antihypertensive activity in spontaneously hypertensive rat assessed as maximum fall in mean arterial pressure at 20 mg/kg, po. Format: functional, Artery.
In data set [23] the test system is Canis familiaris. In words: Peripheral vasodilating activity in anesthetized trachea-cannulated mongrel dog assessed as increase in iliac blood flow at 1600 ug administered intraarterially in presence of isoproterenol. The class given is functional, Canis lupus familiaris, Artery.
In data set [24] the test system is Canis familiaris. In words: Peripheral vasodilating activity in anesthetized trachea-cannulated mongrel dog assessed as increase in iliac blood flow at 1600 ug administered intraarterially co-treated with 800 ug/kg timolol in presence of isoproterenol. Format: functional, Canis lupus familiaris, Artery.
For data set [25], the system named is Rattus norvegicus. Put plainly: Antihypertensive activity in spontaneously hypertensive rat assessed as duration of effect at 20 mg/kg, ip. Format: functional. The following applies: route intraperitoneal.
Data set [26] concerns Rattus norvegicus. Put plainly: Antihypertensive activity in spontaneously hypertensive rat assessed as duration of effect at 20 mg/kg, po. The class given is functional.
Data set [27] concerns Canis familiaris. Put plainly: Peripheral vasodilating activity in anesthetized trachea-cannulated mongrel dog assessed as increase in iliac blood flow at 8 ug administered intraarterially in presence of isoproterenol. Format: functional, Canis lupus familiaris, Artery.
The subject of data set [28] is Canis familiaris. In words: Peripheral vasodilating activity in anesthetized trachea-cannulated mongrel dog assessed as increase in iliac blood flow at 16 ug administered intraarterially in presence of isoproterenol. Format: functional, Canis lupus familiaris, Artery.
Data set [29] deals with Canis familiaris. In words: Peripheral vasodilating activity in anesthetized trachea-cannulated mongrel dog assessed as increase in iliac blood flow at 8 ug administered intraarterially co-treated with 2000 ug/kg timolol in presence of isoproterenol. Format: functional, Canis lupus familiaris, Artery.
The test system of data set [30] is Canis familiaris. In words: Peripheral vasodilating activity in anesthetized trachea-cannulated mongrel dog assessed as increase in iliac blood flow at 32 ug administered intraarterially in presence of isoproterenol. The class given is functional, Canis lupus familiaris, Artery.
The subject of data set [31] is Canis familiaris. In words: Peripheral vasodilating activity in anesthetized trachea-cannulated mongrel dog assessed as increase in iliac blood flow at 32 ug administered intraarterially co-treated with 2000 ug/kg timolol in presence of isoproterenol. The class given is functional, Canis lupus familiaris, Artery.
In data set [32] the test system is Canis familiaris. In words: Peripheral vasodilating activity in anesthetized trachea-cannulated mongrel dog assessed as increase in iliac blood flow at 16 ug administered intraarterially co-treated with 2000 ug/kg timolol in presence of isoproterenol. Format: functional, Canis lupus familiaris, Artery.

Consider `CC(C)(C)NC[C@H](O)COc1ccc(-c2nc(C(F)(F)F)c[nH]2)cc1`, for which the ED50 in the data set on Canis familiaris [1] came to 0.038 mg/kg; with Canis familiaris [9] it was 0.0076 mg/kg. Moreover, the Time in the data set with Rattus norvegicus [2] is 12 h; with Rattus norvegicus [4], 18 h; in the data set with Rattus norvegicus [7], over 24 h. Also, the Activity in the data set with Canis familiaris [3] worked out at 5 mL/min; in the data set with Rattus norvegicus [5], 56 mmHg; in the data set with Rattus norvegicus [6] it was 24 mmHg; in the data set with Rattus norvegicus [8], 40 mmHg.

For `FC(F)(F)c1cnc(-c2cccnc2)[nH]1`, the Activity is 76 mL/min in the data set on Canis familiaris [10]; 39 mmHg in the data set with Rattus norvegicus [11]; 82 bpm in the data set on Canis familiaris [12]; 99 mL/min in the data set on Canis familiaris [13]; 21 mmHg with Rattus norvegicus [16]; 48 mmHg with Rattus norvegicus [17]. For the same compound, the Activity in the data set with Canis familiaris [19] came out at 93 mL/min. Also, the values for the Time in the data set on Rattus norvegicus [14], in the data set on Rattus norvegicus [15] and with Rattus norvegicus [18] were over 6 h, 6 h and 2 h, respectively.

For the compound `CC(C)(C)NC[C@H](O)COc1ncccc1-c1ncc(C(F)(F)F)[nH]1`, the Activity with Rattus norvegicus [20] came out at 8 mmHg; in the data set on Canis familiaris [21] it was 9 mL/min; in the data set with Rattus norvegicus [22], 6 mmHg; in the data set on Canis familiaris [23] it was 4 mL/min. Besides, the ED50 in the data set on Canis familiaris [1] is 0.125 mg/kg; with Canis familiaris [9] it was 0.25 mg/kg.

Consider `CC(C)(C)NC[C@H](O)COc1ccc(-c2ncc(C(F)(F)F)[nH]2)cn1`, for which the Activity in the data set with Rattus norvegicus [20] came out at 40 mmHg; with Canis familiaris [24], 38 mL/min; in the data set on Rattus norvegicus [22], 0 mmHg; in the data set on Canis familiaris [23] it was 103 mL/min. Also, the ED50 in the data set on Canis familiaris [1] is 0.058 mg/kg; in the data set with Canis familiaris [9] it was 0.0025 mg/kg. Further, the Time in the data set on Rattus norvegicus [25] was over 7 h.

Regarding `CC(C)(C)NC[C@H](O)COc1ccccc1-c1ncc(C(F)(F)F)[nH]1`, the Activity in the data set with Rattus norvegicus [20] came to 32 mmHg; with Canis familiaris [21] it was 33 mL/min; in the data set on Rattus norvegicus [22], 0 mmHg; in the data set with Canis familiaris [23], 35 mL/min. Besides, the ED50 with Canis familiaris [1] worked out at 0.1 mg/kg; in the data set with Canis familiaris [9], 0.3 mg/kg. Further, the Time in the data set on Rattus norvegicus [25] was under 7 h.

In the case of `CC(C)(C)NC[C@H](O)COc1cccc(-c2ncc(C(F)(F)F)[nH]2)c1`, the figures for the Activity in the data set on Rattus norvegicus [20] and in the data set on Rattus norvegicus [22] were 40 mmHg and 5 mmHg, respectively. Besides, the ED50 in the data set with Canis familiaris [1] is 0.086 mg/kg; with Canis familiaris [9] it was over 1 mg/kg. Besides, in the data set on Rattus norvegicus [25], the Time is over 7 h.

Regarding `CC(C)(C)NC[C@@H](O)COc1ccc(-c2ncc(C(F)(F)F)[nH]2)cc1`, the values for the ED50 in the data set on Canis familiaris [1] and with Canis familiaris [9] were over 1 mg/kg and 0.102 mg/kg, respectively. In addition, the Activity in the data set with Rattus norvegicus [22] is recorded as 49 mmHg; in the data set on Rattus norvegicus [5], 22 mmHg; in the data set on Rattus norvegicus [8] it was 16 mmHg. Moreover, the Time came out at 2 h with Rattus norvegicus [4], 6 h with Rattus norvegicus [7] and 8 h in the data set with Rattus norvegicus [26].

For the compound `CC(C)(C)NCC(O)COc1ccc(-c2nc(C(F)(F)F)c[nH]2)cc1` (racemic), the Activity was 15 mL/min with Canis familiaris [21]; 52 mL/min with Canis familiaris [27]; 58 mL/min with Canis familiaris [28]; 10 mL/min in the data set on Canis familiaris [29]; 63 mL/min in the data set on Canis familiaris [30]; 9 mL/min in the data set on Canis familiaris [23]. Also, the Activity in the data set with Rattus norvegicus [5] came to 49 mmHg; in the data set with Canis familiaris [31], 17 mL/min; in the data set with Rattus norvegicus [6], 21 mmHg; in the data set on Rattus norvegicus [8], 36 mmHg; with Canis familiaris [32], 17 mL/min. The ED50 in the data set on Canis familiaris [1] was determined as 0.036 mg/kg; in the data set with Canis familiaris [9] it was 0.009 mg/kg. The Time with Rattus norvegicus [2] is 7 h; in the data set on Rattus norvegicus [4], 18 h; in the data set on Rattus norvegicus [7], 18 h.

In the case of `NNc1nncc2ccccc12` [HYDRALAZINE], the Activity in the data set with Rattus norvegicus [11] worked out at 40 mmHg; in the data set with Canis familiaris [23], 66 mL/min; in the data set on Rattus norvegicus [16], 30 mmHg. Besides, the Time in the data set on Rattus norvegicus [15] is over 7 h; in the data set on Rattus norvegicus [18] it was 6 h.
